Patent publication US20120129858A1, “COMPOUNDS, COMPOSITIONS AND METHODS COMPRISING PYRIDAZINE SULFONAMIDE DERIVATIVES” (INSTITUTE FOR ONEWORLD HEALTH, priority 2009, published 2012)
pIC50: −log10 of the molar value.

target: T1, CFTR (Homo sapiens, UniProt P13569); experiment: T84 assay (FLIPR membrane potential dye, forskolin/IBMX-stimulated CFTR channel activity); assay type: cell-based; conditions: average of at least 2 runs unless annotated n = 1
T1 construct: host or cells: T84 human colonic cells
Description: Human colonic T84 cells are acquired from the European Collection of Cell Cultures (ECACC) and are grown in standard culture conditions as described by the supplier. On the day before assay 25,000 T84 cells per well are plated into standard black walled, clear bottom 384-well assay plates in standard growth medium consisting of DMEM:F12 with 10% FBS and incubated overnight. On the day of the assay the plates are washed using a standard assay buffer (HBSS with 10 mM Hepes) and incubated for 15 minutes in serum free cell culture medium before the addition of a commercially available membrane potential sensitive fluorescent dye (FLIPR Red membrane potential dye, Molecular Devices Corporation). T84 cells are incubated with the FLIPR Red membrane potential dye for 45 minutes in the presence and absence of test compound before being transferred to a commercially available fluorescence imaging plate reader (FLIPR384, Molecular Devices Corporation). Fluorescence levels are monitored continuously every second for 150 seconds; after an initial 10 second baseline, CFTR channel activity is stimulated through the addition of 10 μM forskolin in the presence of 100 μM of the phosphodiesterase inhibitor iso-butyl-methylxanthine (IBMX). Addition of the forskolin leads to the activation of intracellular adenylyl cylase 1, elevating cAMP levels and results in the phosphorylation and opening of CFTR anion channels. CFTR channel opening causes chloride ion efflux and subsequent depolarization of the cells, which is measured by an increase in fluorescence. CFTR inhibitor compounds prevent cell depolarization and the associated increase in fluorescence.
Unless otherwise indicated, the IC50 values are reported as an average of at least 2 runs. Where only 1 run is used, it is indicated by the annotation “n=1.”

T1 sequence (P13569 whole entry): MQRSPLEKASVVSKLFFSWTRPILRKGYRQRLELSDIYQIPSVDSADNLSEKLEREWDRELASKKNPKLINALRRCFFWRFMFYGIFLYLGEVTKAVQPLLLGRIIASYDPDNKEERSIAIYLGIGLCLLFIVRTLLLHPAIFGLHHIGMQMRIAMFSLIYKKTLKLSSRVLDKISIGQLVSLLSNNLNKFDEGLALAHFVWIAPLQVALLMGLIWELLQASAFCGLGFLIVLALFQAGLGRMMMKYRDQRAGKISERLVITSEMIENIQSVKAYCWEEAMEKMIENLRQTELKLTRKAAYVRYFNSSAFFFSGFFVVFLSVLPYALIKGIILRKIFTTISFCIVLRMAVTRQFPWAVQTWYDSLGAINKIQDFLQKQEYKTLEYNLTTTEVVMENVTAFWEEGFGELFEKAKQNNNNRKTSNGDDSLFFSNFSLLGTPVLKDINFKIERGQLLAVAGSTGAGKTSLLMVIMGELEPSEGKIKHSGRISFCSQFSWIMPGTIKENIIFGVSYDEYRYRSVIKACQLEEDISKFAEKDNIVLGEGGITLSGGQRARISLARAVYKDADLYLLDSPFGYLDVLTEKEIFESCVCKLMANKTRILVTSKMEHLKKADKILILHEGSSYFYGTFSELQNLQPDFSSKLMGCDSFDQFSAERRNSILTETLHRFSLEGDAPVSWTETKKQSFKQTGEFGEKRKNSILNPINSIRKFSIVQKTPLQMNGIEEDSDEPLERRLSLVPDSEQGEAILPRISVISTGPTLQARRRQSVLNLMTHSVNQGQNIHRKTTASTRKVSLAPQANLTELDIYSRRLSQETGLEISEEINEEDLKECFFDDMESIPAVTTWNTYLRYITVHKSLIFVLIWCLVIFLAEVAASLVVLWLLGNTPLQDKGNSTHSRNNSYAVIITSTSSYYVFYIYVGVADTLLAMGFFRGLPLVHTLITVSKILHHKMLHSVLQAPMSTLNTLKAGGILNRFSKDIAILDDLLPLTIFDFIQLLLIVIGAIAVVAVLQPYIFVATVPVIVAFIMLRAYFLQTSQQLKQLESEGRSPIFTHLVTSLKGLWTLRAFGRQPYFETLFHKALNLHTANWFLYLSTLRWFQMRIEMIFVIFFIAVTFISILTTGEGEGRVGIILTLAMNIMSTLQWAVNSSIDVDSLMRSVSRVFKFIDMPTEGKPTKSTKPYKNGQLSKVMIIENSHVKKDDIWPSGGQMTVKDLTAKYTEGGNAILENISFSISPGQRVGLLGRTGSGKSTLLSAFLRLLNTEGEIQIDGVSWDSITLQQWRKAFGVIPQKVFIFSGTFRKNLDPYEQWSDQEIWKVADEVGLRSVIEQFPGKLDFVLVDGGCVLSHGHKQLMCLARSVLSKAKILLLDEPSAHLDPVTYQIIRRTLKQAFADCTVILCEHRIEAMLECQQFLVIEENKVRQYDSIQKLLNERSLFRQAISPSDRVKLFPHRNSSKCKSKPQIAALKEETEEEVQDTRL

First: CCN(Cc1ccccc1)c1ccc(-c2cccc(NS(=O)(=O)C(F)(F)F)c2)nn1 [Compound 10, N-(3-(6-(benzyl(ethyl)amino)pyridazin-3-yl)phenyl)-1,1,1-trifluoromethanesulfonamide]
Second: CCN(Cc1ccccc1)c1ccc(-c2cccc(NS(C)(=O)=O)c2)nn1 [Compound 7, N-(3-(6-(benzyl(ethyl)amino)pyridazin-3-yl)phenyl)methanesulfonamide]
The pIC50 of the first is 0.55 log units lower: 5.10 for the first, 5.65 for the second.

Going from `CC(C)CS(=O)(=O)Nc1ccc(-c2ccc(OCCc3ccc(Cl)cc3)nn2)cc1` [Compound 24, N-(4-(6-(4-chlorophenethoxy)pyridazin-3-yl)phenyl)-2-methylpropane-1-sulfonamide] to `O=S(=O)(Nc1ccc(-c2ccc(OCCc3ccc(Cl)cc3)nn2)cc1)C(F)(F)F` [Compound 22, N-(4-(6-(4-chlorophenethoxy)pyridazin-3-yl)phenyl)-1,1,1-trifluoromethanesulfonamide], the pIC50 rises from 4.81 to 5.55 (0.74 log units).

`COc1ccc(S(=O)(=O)NC(=O)c2cccc(-c3ccc(OCCc4ccc(Cl)cc4)nn3)c2)cc1` [Compound 11, 3-(6-(4-chlorophenethoxy)pyridazin-3-yl)-N-(4-methoxyphenylsulfonyl)benzamide] and `O=C(NS(=O)(=O)c1ccc(F)cc1)c1cccc(-c2ccc(OCCc3ccc(Cl)cc3)nn2)c1` [Compound 12, 3-(6-(4-chlorophenethoxy)pyridazin-3-yl)-N-(4-fluorophenylsulfonyl)benzamide] are within 0.2 log units of each other in pIC50: 4.94 for the first, 4.93 for the second.

`O=C(NS(=O)(=O)c1ccc(F)c(F)c1)c1cccc(-c2ccc(OCCc3ccc(Cl)cc3)nn2)c1` [Compound 19, 3-(6-(4-chlorophenethoxy)pyridazin-3-yl)-N-(3,4-difluorophenylsulfonyl)benzamide] and `O=C(NS(=O)(=O)c1ccc(F)cc1F)c1cccc(-c2ccc(OCCc3ccc(Cl)cc3)nn2)c1` [Compound 21, 3-(6-(4-chlorophenethoxy)pyridazin-3-yl)-N-(2,4-difluorophenylsulfonyl)benzamide] are within 0.2 log units of each other in pIC50: 4.86 for the first, 4.73 for the second.

`O=C(NS(=O)(=O)c1ccc(F)c(F)c1)c1cccc(-c2ccc(OCCc3ccc(Cl)cc3)nn2)c1` [Compound 15, 3-(6-(4-chlorophenethoxy)pyridazin-3-yl)-N-(3,4-difluorophenylsulfonyl)benzamide] and `CC(C)(C)c1ccc(S(=O)(=O)NC(=O)c2cccc(-c3ccc(OCCc4ccc(Cl)cc4)nn3)c2)cc1` [Compound 14, N-(4-tert-butylphenylsulfonyl)-3-(6-(4-chlorophenethoxy)pyridazin-3-yl)benzamide] are within 0.2 log units of each other in pIC50: 4.56 for the first, 4.70 for the second.

First: O=S(=O)(Nc1cccc(-c2ccc(OCCc3ccc(Cl)cc3)nn2)c1)C(F)(F)F [Compound 2, N-(3-(6-(4-chlorophenethoxy)pyridazin-3-yl)phenyl)-1,1,1-trifluoromethanesulfonamide]
Second: O=S(=O)(CC(F)(F)F)Nc1cccc(-c2ccc(OCCc3ccc(Cl)cc3)nn2)c1 [Compound 20, N-(3-(6-(4-chlorophenethoxy)pyridazin-3-yl)phenyl)-2,2,2-trifluoroethanesulfonamide]
The pIC50 of the first is 0.41 log units higher: 5.24 for the first, 4.83 for the second.

Compared with `O=S(=O)(Nc1cccc(-c2ccc(OCCc3ccc(Cl)cc3)nn2)c1)c1ccc(N2CCOCC2)nc1` [Compound 4, N-(3-(6-(4-chlorophenethoxy)pyridazin-3-yl)phenyl)-6-morpholinopyridine-3-sulfonamide], `N#Cc1ccc(S(=O)(=O)Nc2cccc(-c3ccc(OCCc4ccc(Cl)cc4)nn3)c2)cc1` [Compound 3, N-(3-(6-(4-chlorophenethoxy)pyridazin-3-yl)phenyl)-4-cyanobenzenesulfonamide] is 0.49 log units lower in pIC50: 5.26 for the first, 4.77 for the second.

Going from `CC(C)(C)c1ccc(S(=O)(=O)Nc2cccc(-c3ccc(OCCc4ccc(Cl)cc4)nn3)c2)cc1` [Compound 18, 4-tert-butyl-N-(3-(6-(4-chlorophenethoxy)pyridazin-3-yl)phenyl)benzenesulfonamide] to `CC(=O)Nc1ccc(S(=O)(=O)Nc2cccc(-c3ccc(OCCc4ccc(Cl)cc4)nn3)c2)cc1` [Compound 5, N-(4-(N-(3-(6-(4-chlorophenethoxy)pyridazin-3-yl)phenyl)sulfamoyl)phenyl)acetamide], the pIC50 falls from 5.09 to 4.56 (0.53 log units).

Compared with `CCN(Cc1ccccc1)c1ccc(-c2cccc(N3CCCS3(=O)=O)c2)nn1` [Compound 26, Benzyl-{6-[3-(1,1-dioxo-isothiazolidin-2-yl)-phenyl]-pyridazin-3-yl}-ethylamine], `CCN(Cc1ccccc1)c1ccc(-c2cccc(NS(=O)(=O)N(C)C)c2)nn1` [Compound 6, N-(3-(6-(benzyl(ethyl)amino)pyridazin-3-yl)phenyl)dimethylaminosulfonamide] is 0.43 log units higher in pIC50: 5.42 for the first, 5.85 for the second.

First: Cc1ccc(S(=O)(=O)Nc2cccc(-c3ccc(NCc4ccccc4)nn3)c2)cc1 [Compound 16, N-(3-(6-(benzylamino)pyridazin-3-yl)phenyl)-4-methylbenzenesulfonamide]
Second: CCN(Cc1ccccc1)c1ccc(-c2cccc(NS(=O)(=O)c3ccc(C)cc3)c2)nn1 [Compound 8, N-(3-(6-(benzyl(ethyl)amino)pyridazin-3-yl)phenyl)-4-methylbenzenesulfonamide]
The pIC50 of the first is 1.65 log units lower: 5.65 for the first, 7.30 for the second.

Going from `O=C(NS(=O)(=O)Cc1ccccc1)c1cccc(-c2ccc(OCCc3ccc(Cl)cc3)nn2)c1` [Compound 17, N-(benzylsulfonyl)-3-(6-(4-chlorophenethoxy)pyridazin-3-yl)benzamide] to `CCS(=O)(=O)NC(=O)c1cccc(-c2ccc(OCCc3ccc(Cl)cc3)nn2)c1` [Compound 13, 3-(6-(4-chlorophenethoxy)pyridazin-3-yl)-N-(ethylsulfonyl)benzamide], the pIC50 falls from 5.22 to 4.73 (0.49 log units).

Going from `Cc1ccc(S(=O)(=O)NC(=O)c2ccc(-c3ccc(OCCc4ccc(Cl)cc4)nn3)cc2)cc1` [Compound 23, 4-(6-(4-chlorophenethoxy)pyridazin-3-yl)-N-tosylbenzamide] to `CS(=O)(=O)Nc1cccc(-c2ccc(OCCc3ccc(Cl)cc3)nn2)c1` [Compound 1, N-(3-(6-(4-chlorophenethoxy)pyridazin-3-yl)phenyl)methanesulfonamide], the pIC50 falls from 5.52 to 5.01 (0.51 log units).

For `CCN(Cc1ccccc1)c1ccc(-c2cccc(NS(=O)(=O)c3cccc(Br)c3)c2)nn1` [Compound 9, N-(3-(6-(benzyl(ethyl)amino)pyridazin-3-yl)phenyl)-3-bromobenzenesulfonamide], the pIC50 was 7.30.

system: cholera toxin (CTX) induced net fluid secretion in small intestine loops; experiment: not given; set-up: species or system mice (CD1 strain); conditions: mouse, in vivo

With `O=S(=O)(Nc1cccc(-c2ccc(OCCc3ccc(Cl)cc3)nn2)c1)C(F)(F)F` [Compound 2, N-(3-(6-(4-chlorophenethoxy)pyridazin-3-yl)phenyl)-1,1,1-trifluoromethanesulfonamide] the “closed loop % inhibition” value was 98.2%.
